In US20230107642A1 (Erasca, Inc., priority 2020, published 2023):

target: T1, K-Ras G12C (Homo sapiens, UniProt P01116, G12C); experiment: CAF assay (% CAF; method in Example 7, not in this part); format: binding; settings: 10 uM compound, 1 h incubation
T1 construct: This protein contained 188 amino acids in total, including an N-terminal 6-Histidine tag; made in house; host or cells: E. coli BL21

Row | % CAF @ 10 uM, 1h [%] | SMILES
1 | 95.8 | C=CC(=O)N1CCN(c2nc(=O)n3c4c(c(-c5ccc(F)cc5F)c(C(F)(F)F)cc24)SC[C@@H]3COC)[C@@H](C)C1 [Example 435, (3S)-7-((S)-4-acryloyl-2-methylpiperazin-1-yl)-10-(2,4-difluorophenyl)-3-(methoxymethyl)-9-(trifluoromethyl)-2H-[1,4]thiazino[2,3,4-ij]quinazolin-5(3H)-one]
2 | 96 | C=CC(=O)N1CCN(c2nc(=O)n3c4c(c(-c5ccc(F)cc5F)c(Cl)cc24)SC[C@@H](OC)C3)[C@@H](C)C1 [Example 487, (3S)-8-((S)-4-acryloyl-2-methylpiperazin-1-yl)-10-chloro-11-(2,4-difluorophenyl)-3-methoxy-3,4-dihydro-2H,6H-[1,4]thiazepino[2,3,4-ij]quinazolin-6-one]
3 | 69 | C=CC(=O)N1CCN(c2nc(=O)n3c4c(c(-c5cc(F)c(F)cc5F)c(Cl)cc24)SC[C@@H]3CN2CCn3c(nnc3C(F)(F)F)C2)[C@@H](C)C1 [Example 463, (3S)-7-((S)-4-acryloyl-2-methylpiperazin-1-yl)-9-chloro-3-((3-(trifluoromethyl)-5,6-dihydro-[1,2,4]triazolo[4,3-a]pyrazin-7(8H)-yl)methyl)-10-(2,4,5-trifluorophenyl)-2H-[1,4]thiazino[2,3,4-ij]quinazolin-5(3H)-one]
4 | 88 | C=CC(=O)N1CCN(c2nc(=O)n3c4c(c(-c5cc(Cl)c(F)cc5F)c(C(F)(F)F)cc24)SC[C@@H](OC)C3)CC1 [Example 582, (3S)-8-(4-acryloylpiperazin-1-yl)-11-(5-chloro-2,4-difluorophenyl)-3-methoxy-10-(trifluoromethyl)-3,4-dihydro-2H,6H-[1,4]thiazepino[2,3,4-ij]quinazolin-6-one]
5 | 71 | C=CC(=O)N1CCN(c2nc(=O)n3c4c(c(-c5ccc(F)cc5F)c(C(F)(F)F)cc24)S[C@H](COC)C3)[C@@H](C)C1 [Example 507, (2S)-7-((S)-4-acryloyl-2-methylpiperazin-1-yl)-10-(2,4-difluorophenyl)-2-(methoxymethyl)-9-(trifluoromethyl)-2,3-dihydro-5H-[1,4]thiazino[2,3,4-ij]quinazolin-5-one]
6 | 39.3 | C=CC(=O)N1CCN(c2nc(=O)n3c4c(c(-c5c(F)ccc6[nH]ncc56)c(Cl)cc24)SCC3)[C@@H](C)C1 [Example 408, 7-((S)-4-acryloyl-2-methylpiperazin-1-yl)-9-chloro-10-(5-fluoro-1H-indazol-4-yl)-2,3-dihydro-5H-[1,4]thiazino[2,3,4-ij]quinazolin-5-one]
7 | 65.1 | C=CC(=O)N1C[C@H](C)N(c2nc(=O)n3c4c(c(-c5cc(Cl)c(F)cc5F)c(Cl)cc24)SC[C@@H]3COCCOC)C[C@H]1C [Example 502, (3S)-7-((2S,5R)-4-acryloyl-2,5-dimethylpiperazin-1-yl)-9-chloro-10-(5-chloro-2,4-difluorophenyl)-3-((2-methoxyethoxy)methyl)-2H-[1,4]thiazino[2,3,4-ij]quinazolin-5(3H)-one]
8 | 97 | C=CC(=O)N1CCN(c2nc(=O)n3c4c(c(-c5ccc(F)cc5)c(Cl)cc24)SC[C@@H](OC)C3)CC1 [Example 536, (S)-8-(4-acryloylpiperazin-1-yl)-10-chloro-11-(4-fluorophenyl)-3-methoxy-3,4-dihydro-2H,6H-[1,4]thiazepino[2,3,4-ij]quinazolin-6-one]
9 | 66.8 | C=CC(=O)N1C[C@H](C)N(c2nc(=O)n3c4c(c(-c5ccc(F)cc5F)c(Cl)cc24)SC[C@@H]3COCCOC)C[C@H]1C [Example 501, (3S)-7-((2S,5R)-4-acryloyl-2,5-dimethylpiperazin-1-yl)-9-chloro-10-(2,4-difluorophenyl)-3-((2-methoxyethoxy)methyl)-2H-[1,4]thiazino[2,3,4-ij]quinazolin-5(3H)-one]
10 | 44.3 | C=CC(=O)N1C[C@H](C)N(c2nc(=O)n3c4c(c(-c5cc(Cl)c(F)cc5F)c(Cl)cc24)SC[C@@H]3CC2CCN(C3CC3)CC2)C[C@H]1C [Example 467, (3S)-7-((2S,5R)-4-acryloyl-2,5-dimethylpiperazin-1-yl)-9-chloro-10-(5-chloro-2,4-difluorophenyl)-3-((1-cyclopropylpiperidin-4-yl)methyl)-2H-[1,4]thiazino[2,3,4-ij]quinazolin-5(3H)-one]
11 | 34.1 | C=CC(=O)N1CCN(c2nc(=O)n3c4c(c(-c5ccc(F)cc5F)c(Cl)cc24)SC[C@@H]3CC2CCN(C)CC2)[C@@H](C)C1 [Example 423, (3S)-7-((S)-4-acryloyl-2-methylpiperazin-1-yl)-9-chloro-10-(2,4-difluorophenyl)-3-((1-methylpiperidin-4-yl)methyl)-2H-[1,4]thiazino[2,3,4-ij]quinazolin-5(3H)-one]

same assay, conditions: 10 uM, 1 h; Table 3

Row | % CAF @ 10 uM, 1h [%] | SMILES
12 | 85.3 | C=CC(=O)N1CCN(c2nc(=O)n3c4c(c(-c5ccc(F)c(C#N)c5)c(Cl)cc24)SCC3)[C@@H](C)C1 [Example 83, (S)-5-(7-(4-acryloyl-2-methylpiperazin-1-yl)-9-chloro-5-oxo-2,3-dihydro-5H-[1,4]thiazino[2,3,4-ij]quinazolin-10-yl)-2-fluorobenzonitrile]
13 | 97 | C=CC(=O)N1CCN(c2nc(=O)n3c4c(c(-c5ccc(F)cc5F)c(Cl)cc24)SCC3)[C@@H](C)C1 [Example 193, 7-((S)-4-acryloyl-2-methylpiperazin-1-yl)-9-chloro-10-(2,4-difluorophenyl)-2,3-dihydro-5H-[1,4]thiazino[2,3,4-ij]quinazolin-5-one]
14 | 90.2 | C=CC(=O)N1CCN(c2nc(=O)n3c4c(c(-c5ccc(F)cc5F)c(Cl)cc24)SCC3)C[C@@H]1CC#N [Example 88, 2-((2S)-1-acryloyl-4-(9-chloro-10-(2,4-difluorophenyl)-5-oxo-2,3-dihydro-5H-[1,4]thiazino[2,3,4-ij]quinazolin-7-yl)piperazin-2-yl)acetonitrile]
15 | 6.7 | C=C(F)C(=O)N1CCN(c2nc(=O)n3c4c(c(-c5ccc(Cl)c(F)c5)c(Cl)cc24)SCC3)[C@@H](C)C1 [Example 78, (S)-9-chloro-10-(4-chloro-3-fluorophenyl)-7-(4-(2-fluoroacryloyl)-2-methylpiperazin-1-yl)-2,3-dihydro-5H-[1,4]thiazino[2,3,4-ij]quinazolin-3-one]
16 | 92.6 | C=CC(=O)N1CCN(c2nc(=O)n3c4c(c(-c5ccc(F)cc5F)c(Cl)cc24)SCC3)C[C@@H]1CS(C)(=O)=O [Example 186, 7-((R)-4-acryloyl-3-((methylsulfonyl)methyl)piperazin-1-yl)-9-chloro-10-(2,4-difluorophenyl)-2,3-dihydro-5H-[1,4]thiazino[2,3,4-ij]quinazolin-5-one]
17 | 64 | C=CC(=O)N1CCN(c2nc(=O)n3c4c(c(-c5ccc(F)cc5F)c(Cl)cc24)SCC3)[C@H](C)C1 [Example 158, 7-((R)-4-acryloyl-2-methylpiperazin-1-yl)-9-chloro-10-(2,4-difluorophenyl)-2,3-dihydro-5H-[1,4]thiazino[2,3,4-ij]quinazolin-5-one]

same assay, conditions: 10 μM, 1 h; Table 4

Row | % CAF @ 10 μM, 1 h [%] | SMILES
18 | 82.5 | C=CC(=O)N1CCN(c2nc(=O)n3c4c(c(-c5ccc(F)cc5F)c(Cl)cc24)SC[C@H]3CN2CCN(CC(F)F)CC2)[C@@H](C)C1 [Example 347, (3R)-7-((S)-4-acryloyl-2-methylpiperazin-1-yl)-9-chloro-3-((4-(2,2-difluoroethyl)piperazin-1-yl)methyl)-10-(2,4-difluorophenyl)-2H-[1,4]thiazino[2,3,4-ij]quinazolin-5(3H)-one]
